Patent publication US20080221060A1, “Therapeutic Compounds” (priority 2004, published 2008)
Like-named read-outs stand apart in the source and are kept apart here.

Columns and labels:
[1] = molecular target: adenosine receptors (rat striatal membranes, [3H]-CGS21680) (Rattus norvegicus, UniProt P30543); assay: Ki from displacement of [3H]-CGS21680 in rat striatal membranes at pH 5.5 and pH 7.4; format: binding; design: from tissue; host or cells: rat striatum (membranes); conditions: 2 nM [3H]-CGS21680, 90 minutes at 22° C.
[2] = tested on: chronic constriction injury model of neuropathic pain; assay: static allodynia, chronic constriction injury of the rat sciatic nerve; format: in vivo; conditions: rat CCI, p.o., dose response
Source text: The total dose administered is shown on the horizontal axis, and the paw withdrawal threshold (PWT) on the vertical axis.

[3] = pH 5.5, read-out: (Ki) nM (pH 5.5)
[4] = pH 7.4, read-out: (Ki) nM (pH 7.4)

adenosine receptors (rat striatal membranes, [3H]-CGS21680), sequence (P30543 whole entry): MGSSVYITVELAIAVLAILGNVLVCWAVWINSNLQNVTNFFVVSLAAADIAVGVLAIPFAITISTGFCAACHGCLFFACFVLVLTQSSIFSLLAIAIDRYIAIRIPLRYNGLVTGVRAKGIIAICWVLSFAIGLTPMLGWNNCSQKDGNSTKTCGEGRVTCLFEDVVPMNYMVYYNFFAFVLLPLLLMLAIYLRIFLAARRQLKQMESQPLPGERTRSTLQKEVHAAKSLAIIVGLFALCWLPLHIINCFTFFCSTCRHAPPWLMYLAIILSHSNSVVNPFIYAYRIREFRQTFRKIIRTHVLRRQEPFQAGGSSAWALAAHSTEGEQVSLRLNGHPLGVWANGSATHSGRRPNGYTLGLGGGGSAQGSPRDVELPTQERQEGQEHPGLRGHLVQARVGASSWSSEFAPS

Row | SMILES | Ki [1, 3] [nM] | Ki [1, 4] [nM] | Ki ([1]; (Ki) nM (pH 5.5), pH 5.5) [nM] | Ki ([1]; (Ki) nM (pH 7.4), pH 7.4) [nM] | inhibition of static allodynia (paw withdrawal threshold) [2]
1 | Nc1nc(OCC(F)F)nc2c1ncn2[C@@H]1O[C@H](CO)[C@@H](O)[C@H]1O [Compound 2] | 17 | 780 |  |  | 
2 | Nc1nc(OCC2CC2)nc2c1ncn2[C@@H]1O[C@H](CO)[C@@H](O)[C@H]1O [Compound 3] | 39 | 670 |  |  | 
3 | CCCCOc1nc(N)c2ncn([C@@H]3O[C@H](CO)[C@@H](O)[C@H]3O)c2n1 [Compound 4] | 11 | 280 |  |  | 
4 | CCCCCCOc1nc(N)c2ncn([C@@H]3O[C@H](CO)[C@@H](O)[C@H]3O)c2n1 [Compound 5] | 3 | 1500 |  |  | 
5 | Nc1nc(Oc2ccccc2)nc2c1ncn2[C@@H]1O[C@H](CO)[C@@H](O)[C@H]1O [Compound 6, 2-phenoxyadenosine] | 71 | 2500 |  |  | 
6 | N#Cc1ccc(Oc2nc(N)c3ncn([C@@H]4O[C@H](CO)[C@@H](O)[C@H]4O)c3n2)cc1 [Compound 7] | 4 | 1300 |  |  | 
7 | Nc1nc(Oc2cccc(-c3ccccc3)c2)nc2c1ncn2[C@@H]1O[C@H](CO)[C@@H](O)[C@H]1O [Compound 8] | 0.7 | 620 |  |  | 
8 | Nc1nc(Oc2cc(F)ccc2F)nc2c1ncn2[C@@H]1O[C@H](CO)[C@@H](O)[C@H]1O [Compound 9] | 16 | 2500 |  |  | 
9 | Nc1nc(Oc2ccc(F)cc2F)nc2c1ncn2[C@@H]1O[C@H](CO)[C@@H](O)[C@H]1O [Compound 10] | 16 | 6400 |  |  | 
10 | Nc1nc(Oc2ccc(F)c(F)c2)nc2c1ncn2[C@@H]1O[C@H](CO)[C@@H](O)[C@H]1O [Compound 11] | 63 | 3300 |  |  | 
11 | Nc1nc(Oc2cc(F)cc(F)c2F)nc2c1ncn2[C@@H]1O[C@H](CO)[C@@H](O)[C@H]1O [Compound 12] | 46 | 5900 |  |  | 
12 | Cc1cc(Oc2nc(N)c3ncn([C@@H]4O[C@H](CO)[C@@H](O)[C@H]4O)c3n2)ccc1F [Compound 13] | 43 | 3100 |  |  | 
13 | Cc1ccccc1Oc1nc(N)c2ncn([C@@H]3O[C@H](CO)[C@@H](O)[C@H]3O)c2n1 [Compound 14] |  | 22000 |  |  | 
14 | Nc1nc(Oc2cccc(Br)c2)nc2c1ncn2[C@@H]1O[C@H](CO)[C@@H](O)[C@H]1O [Compound 15] | 35 | 590 |  |  | 
15 | Cc1ccc(Oc2nc(N)c3ncn([C@@H]4O[C@H](CO)[C@@H](O)[C@H]4O)c3n2)cc1 [Compound 16] | 3.4 | 720 |  |  | 
16 | Nc1nc(Oc2ccc3c(c2)CCC3)nc2c1ncn2[C@@H]1O[C@H](CO)[C@@H](O)[C@H]1O [Compound 17] | 12 | 760 |  |  | 
17 | CC(C)c1cccc(Oc2nc(N)c3ncn([C@@H]4O[C@H](CO)[C@@H](O)[C@H]4O)c3n2)c1 [Compound 18] | 16 | 560 |  |  | 
18 | CNc1nc(N)c2ncn([C@@H]3O[C@H](CO)[C@@H](O)[C@H]3O)c2n1 [Compound 19] |  | 1360 |  |  | 
19 | CN(C)c1nc(N)c2ncn([C@@H]3O[C@H](CO)[C@@H](O)[C@H]3O)c2n1 [Compound 21] |  | 13300 |  |  | 

Row | SMILES | Ki [1, 3] [nM] | Ki [1, 4] [nM] | Ki ([1]; (Ki) nM (pH 5.5), pH 5.5) [nM] | Ki ([1]; (Ki) nM (pH 7.4), pH 7.4) [nM] | inhibition of static allodynia (paw withdrawal threshold) [2]
20 | CC[C@@H](C)Nc1nc(N)c2ncn(C3OC(CO)C(O)C3O)c2n1 (some centres unmarked) [Compound 22] | 33 | 510 |  |  | 
21 | CC[C@H](C)Nc1nc(N)c2ncn(C3OC(CO)C(O)C3O)c2n1 (some centres unmarked) [Compound 23] | 29 | 1400 |  |  | 
22 | CCCCCCNc1nc(N)c2ncn([C@@H]3O[C@H](CO)[C@@H](O)[C@H]3O)c2n1 [Compound 24] | 0.7 | 290 |  |  | 
23 | Nc1nc(NC2CC3CCC2C3)nc2c1ncn2[C@@H]1O[C@H](CO)[C@@H](O)[C@H]1O (some centres unmarked) [Compound 25] | 5.5 | 120 |  |  | 
24 | Nc1nc(Nc2ccccc2)nc2c1ncn2[C@@H]1O[C@H](CO)[C@@H](O)[C@H]1O [Compound 26, 2-phenylamino adenosine] | 5 | 160 |  |  | 
25 | COc1ccc(Nc2nc(N)c3ncn([C@@H]4O[C@H](CO)[C@@H](O)[C@H]4O)c3n2)cc1 [Compound 27, 2-(4-methoxyphenylamino) adenosine] | 3 | 55 |  |  | 
26 | Nc1nc(Nc2ccc(F)cc2)nc2c1ncn2[C@@H]1O[C@H](CO)[C@@H](O)[C@H]1O [Compound 28] | 10 | 200 |  |  | 
27 | Nc1nc(NC2CCCC2)nc2c1ncn2[C@@H]1O[C@H](CO)[C@@H](O)[C@H]1O [Compound 29] | 2 | 420 |  |  | 
28 | Nc1nc(NC2CCCCC2)nc2c1ncn2[C@@H]1O[C@H](CO)[C@@H](O)[C@H]1O [Compound 30, 2-cyclohexylamino adenosine] | 0.4 | 1000 |  |  | 
29 | CC(C)CCN(C)c1nc(N)c2ncn([C@@H]3O[C@H](CO)[C@@H](O)[C@H]3O)c2n1 [Compound 31] | 26 | 4000 |  |  | 
30 | Nc1nc(OCC2CCCC2)nc2c1ncn2[C@@H]1O[C@H](CO)[C@@H](O)[C@H]1O [Compound 32] | 0.2 | 200 |  |  | 
31 | CCS(=O)(=O)c1nc(N)c2ncn([C@@H]3O[C@H](CO)[C@@H](O)[C@H]3O)c2n1 [Compound 33] | 100 | 39000 |  |  | 
32 | Nc1nc(OCCO)nc2c1ncn2[C@@H]1O[C@H](CO)[C@@H](O)[C@H]1O [Compound 34, 2-(β-hydroxyethoxy)-adenosine] | 4 | 203 |  |  | 
33 | Nc1nc(OC2CC(F)(F)C2(F)F)nc2c1ncn2[C@@H]1O[C@H](CO)[C@@H](O)[C@H]1O (some centres unmarked) [Compound 35] | 11 | 220 |  |  | 
34 | N#Cc1nc(N)c2ncn([C@@H]3O[C@H](CO)[C@@H](O)[C@H]3O)c2n1 [Compound 38] | 25 | 175 |  |  | 
35 | NC(=O)c1nc(N)c2ncn([C@@H]3O[C@H](CO)[C@@H](O)[C@H]3O)c2n1 [Compound 39] | 23 | 610 |  |  | 
36 | CN(C)c1ncnc2c1ncn2[C@@H]1O[C@H](CO)[C@@H](O)[C@H]1O [Compound 41] |  |  | 42 | 450000 | 
37 | CC(C)=CCNc1ncnc2c1ncn2[C@@H]1O[C@H](CO)[C@@H](O)[C@H]1O [Compound 42] |  |  | 91.5 | 8600 | 
38 | CN(Cc1ccccc1)c1ncnc2c1ncn2[C@@H]1O[C@H](CO)[C@@H](O)[C@H]1O [Compound 43] | 7 | 18500 |  |  | 

Row | SMILES | Ki [1, 3] [nM] | Ki [1, 4] [nM] | Ki ([1]; (Ki) nM (pH 5.5), pH 5.5) [nM] | Ki ([1]; (Ki) nM (pH 7.4), pH 7.4) [nM] | inhibition of static allodynia (paw withdrawal threshold) [2]
39 | CN(Cc1cccc(Br)c1)c1ncnc2c1ncn2[C@@H]1O[C@H](CO)[C@@H](O)[C@H]1O [Compound 44] | 29 | 7500 |  |  | 
40 | CN(Cc1cccc(C(F)(F)F)c1)c1ncnc2c1ncn2[C@@H]1O[C@H](CO)[C@@H](O)[C@H]1O [Compound 45] | 3.8 | 20000 |  |  | 
41 | OC[C@H]1O[C@@H](n2cnc3c(N4CCNCC4)ncnc32)[C@H](O)[C@@H]1O [Compound 46] | 38 | 5000 |  |  | 
42 | COCCN(C)c1ncnc2c1ncn2[C@@H]1O[C@H](CO)[C@@H](O)[C@H]1O [Compound 47] | 13 | 13000 |  |  | 
43 | OC[C@H]1O[C@@H](n2cnc3c(OCC4CCCC4)ncnc32)[C@H](O)[C@@H]1O [Compound 48] | 140 | 21000 |  |  | 
44 | CC(C)NC(=O)[C@H]1O[C@@H](n2cnc3c(N)ncnc32)[C@H](O)[C@@H]1O [Compound 49] | 5 | 1930 |  |  | 
45 | NC(=O)[C@H]1O[C@@H](n2cnc3c(N)ncnc32)[C@H](O)[C@@H]1O [Compound 50] | 9 | 270 |  |  | 
46 | CNc1ncnc2c1ncn2[C@@H]1O[C@H](C(=O)NC(C)C)[C@@H](O)[C@H]1O [Compound 51] | 188 | 2440 |  |  | 
47 | CC(C)CCNc1ncnc2c1ncn2[C@@H]1O[C@H](C(=O)NC(C)C)[C@@H](O)[C@H]1O [Compound 52] | 39 | 1300 |  |  | 
48 | COc1nc(N)c2ncn([C@@H]3O[C@H](C(=O)Nc4ccccc4)[C@@H](O)[C@H]3O)c2n1 [Compound 53] | 230 | 26100 |  |  | 
49 | CCCCCCNc1nc(N)c2ncn([C@@H]3O[C@H](C(=O)NCCCC)[C@@H](O)[C@H]3O)c2n1 [Compound 54] | 0.3 | 540 |  |  | 
50 | CCCC(=O)NC[C@H]1O[C@@H](n2cnc3c(N)ncnc32)[C@H](O)[C@@H]1O [Compound 55] | 145 | 16900 |  |  | 
51 | CCNC(=O)NC[C@H]1O[C@@H](n2cnc3c(N)ncnc32)[C@H](O)[C@@H]1O [Compound 56] | 40 | 6570 |  |  | 
52 | CN(C)c1nc(NC2CCCCC2)nc2c1ncn2[C@@H]1O[C@H](CO)[C@@H](O)[C@H]1O [Compound 57] | 2.6 | 18000 |  |  | 
53 | COc1nc(NCc2ccccc2)c2ncn([C@@H]3O[C@H](CO)[C@@H](O)[C@H]3O)c2n1 [Compound 58] | 4.5 | 6100 |  |  | 
54 | Cc1nc2c(N)nc(NC3CCCCC3)nc2n1[C@@H]1O[C@H](CO)[C@@H](O)[C@H]1O [Compound 59] | 31 | 3900 |  |  | 
55 | Cc1nc2c(N)nc(NC3CCCC3)nc2n1[C@@H]1O[C@H](CO)[C@@H](O)[C@H]1O [Compound 60] | 49 | 2400 |  |  | 
56 | CCCCCCNc1nc(N)c2nc(C)n([C@@H]3O[C@H](CO)[C@@H](O)[C@H]3O)c2n1 [Compound 61] | 130 | 4800 |  |  | 
57 | NCC1(CC(=O)O)CCCCC1 [gabapentin, reference compound] |  |  |  |  | inhibit static allodynia
